Laboratory results from PubChem BioAssay (NCI).
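Five concentrations, 48 hours, 96-well plates. TGI denotes the concentration required for complete inhibition of growth.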

How the values were obtained:
Assay in all cases: NCI tumour cell line growth inhibition, 48 h
[1] = test system: BT-549 breast
[2] = test system: NCI-H226 lung
[3] = test system: NCI-H522 lung
[4] = test system: HL-60(TB) leukemia
[5] = test system: HS 578T breast
[6] = test system: SK-OV-3 ovarian
[7] = test system: UO-31 renal
[8] = test system: SF-295 CNS
[9] = test system: HOP-62 NSCLC
[10] = test system: MDA-MB-231 breast
[11] = test system: COLO 205 colon
[12] = test system: MOLT-4 leukemia
[13] = test system: MCF7 breast
[14] = test system: DU-145 prostate
[15] = test system: LOX IMVI melanoma
[16] = test system: OVCAR-5 ovarian
[17] = test system: CCRF-CEM leukemia
[18] = test system: OVCAR-8 ovarian
[19] = test system: M14 melanoma
[20] = test system: RXF 393 renal
[21] = test system: SF-539 CNS
[22] = test system: OVCAR-3 ovarian
[23] = test system: T-47D breast
[24] = test system: SNB-19 CNS
[25] = test system: HCT-15 colon
[26] = test system: NCI-H23 lung
[27] = test system: UACC-257 melanoma
[28] = test system: SR leukemia
[29] = test system: HT29 colon
[30] = test system: A549 NSCLC
[31] = test system: TK-10 renal
[32] = test system: DMS 114 small cell lung
[33] = test system: SF-268 CNS
[34] = test system: U251 CNS
[35] = test system: SN12C renal
[36] = test system: SNB-78 CNS
[37] = test system: NCI/ADR-RES ovarian
[38] = test system: DLD-1 colon
[39] = test system: KM12 colon
[40] = test system: SK-MEL-5 melanoma
[41] = test system: IGROV1 ovarian
[42] = test system: NCI-H460 lung
[43] = test system: SW-620 colon
[44] = test system: MDA-N
[45] = test system: EKVX NSCLC
[46] = test system: HOP-92 NSCLC
[47] = test system: A498 renal
[48] = test system: MDA-MB-435
[49] = test system: PC-3 prostate
[50] = test system: DMS 273 small cell lung
[51] = test system: ACHN renal
[52] = test system: KM20L2 colon
[53] = test system: CAKI-1 renal
[54] = test system: SK-MEL-28 melanoma
[55] = test system: RPMI-8226 leukemia
[56] = test system: MALME-3M melanoma
[57] = test system: K-562 leukemia
[58] = test system: M19-MEL melanoma
[59] = test system: OVCAR-4 ovarian
[60] = test system: SNB-75 CNS
[61] = test system: HCT-116 colon
[62] = test system: 786-0 renal
[63] = test system: LXFL 529 NSCLC
[64] = test system: HCC-2998 colon
[65] = test system: XF 498 CNS
[66] = test system: SK-MEL-2 melanoma
[67] = test system: UACC-62 melanoma

SMILES: CCOc1ccc2nc(NC(=O)C(=O)C(C(=O)c3ccccc3-c3ccccc3)C3OC(=O)c4ccccc43)sc2c1 (stereo not given)
- TGI [1]: 81.7 µM
- TGI [2]: 21.5 µM
- TGI [3]: 32 µM
- TGI [4]: 68.7 µM
- TGI [5]: > 100 µM
- TGI [6]: > 72.6 µM
- TGI [7]: 52.8 µM
- TGI [8]: > 93.8 µM
- TGI [9]: 99.3 µM
- TGI [10]: 70.8 µM
- TGI [11]: 37 µM
- TGI [12]: 99.6 µM
- TGI [13]: > 100 µM
- TGI [14]: 56.1 µM
- TGI [15]: 39.4 µM
- TGI [16]: > 100 µM
- TGI [17]: 64.2 µM
- TGI [18]: 25.7 µM
- TGI [19]: > 67.2 µM
- TGI [20]: 18.1 µM
- TGI [21]: 36.7 µM
- TGI [22]: 89.8 µM
- TGI [23]: 60.7 µM
- TGI [24]: 36.3 µM
- TGI [25]: > 62.4 µM
- TGI [26]: 47.4 µM
- TGI [27]: > 96 µM
- TGI [28]: 43 µM
- TGI [29]: 43.6 µM
- TGI [30]: > 71.2 µM
- TGI [31]: 41.9 µM
- TGI [32]: 35 µM
- TGI [33]: 79.5 µM
- TGI [34]: 31.7 µM
- TGI [35]: 51.9 µM
- TGI [36]: > 100 µM
- TGI [37]: 37.9 µM
- TGI [38]: > 100 µM
- TGI [39]: 32.5 µM
- TGI [40]: 31.3 µM
- TGI [41]: > 68 µM
- TGI [42]: 42.7 µM
- TGI [43]: 60.1 µM
- TGI [44]: 70.9 µM
- TGI [45]: 47.5 µM
- TGI [46]: 46.8 µM
- TGI [47]: 48.1 µM
- TGI [48]: 65.1 µM
- TGI [49]: 41.7 µM
- TGI [50]: > 100 µM
- TGI [51]: > 100 µM
- TGI [52]: 54.6 µM
- TGI [53]: 53.2 µM
- TGI [54]: 54.2 µM
- TGI [55]: 52.4 µM
- TGI [56]: 34.8 µM
- TGI [57]: > 67 µM
- TGI [58]: 44.2 µM
- TGI [59]: > 100 µM
- TGI [60]: 61.6 µM
- TGI [61]: 33.7 µM
- TGI [62]: 34.6 µM
- TGI [63]: 41.1 µM
- TGI [64]: 33.1 µM
- TGI [65]: 49.1 µM
- TGI [66]: 60.1 µM
- TGI [67]: 34.8 µM

SMILES: C=CCC1(O)c2ccccc2C(=O)c2c(O)ccc(O)c21 (stereo not given)
- TGI [1]: 36.3 µM
- TGI [2]: > 43 µM
- TGI [3]: 8.11 µM
- TGI [4]: 13 µM
- TGI [5]: 21.9 µM
- TGI [6]: 40.7 µM
- TGI [7]: 52.6 µM
- TGI [8]: > 51.9 µM
- TGI [9]: > 86.8 µM
- TGI [10]: 26 µM
- TGI [11]: 26.9 µM
- TGI [12]: > 58 µM
- TGI [13]: 26.3 µM
- TGI [14]: 38 µM
- TGI [15]: > 50.9 µM
- TGI [16]: 60.4 µM
- TGI [17]: 56.7 µM
- TGI [18]: 53.7 µM
- TGI [19]: 27.5 µM
- TGI [20]: 21.4 µM
- TGI [21]: > 33.7 µM
- TGI [22]: > 57.6 µM
- TGI [23]: > 59.2 µM
- TGI [24]: 68.6 µM
- TGI [25]: > 75.7 µM
- TGI [26]: 56 µM
- TGI [27]: 19 µM
- TGI [28]: > 69.8 µM
- TGI [29]: > 62.4 µM
- TGI [30]: > 87.3 µM
- TGI [31]: 47.1 µM
- TGI [33]: 56.9 µM
- TGI [34]: 24.3 µM
- TGI [35]: 56.4 µM
- TGI [37]: 12.1 µM
- TGI [39]: 30.1 µM
- TGI [40]: 23.1 µM
- TGI [41]: > 100 µM
- TGI [42]: 18.3 µM
- TGI [43]: > 100 µM
- TGI [44]: 5.15 µM
- TGI [45]: 57 µM
- TGI [46]: 41.1 µM
- TGI [47]: 25.8 µM
- TGI [48]: 6.43 µM
- TGI [49]: 35.5 µM
- TGI [51]: 46.3 µM
- TGI [53]: 50.7 µM
- TGI [54]: > 100 µM
- TGI [55]: > 100 µM
- TGI [56]: 28.8 µM
- TGI [57]: > 100 µM
- TGI [59]: > 82.5 µM
- TGI [60]: 25.3 µM
- TGI [61]: 27.3 µM
- TGI [62]: 31.8 µM
- TGI [64]: 15 µM
- TGI [66]: 9.98 µM
- TGI [67]: 20.3 µM

SMILES: CCOc1cc2c(cc1O)/C(=N\N)C[C@@H]1[C@@H]2CC[C@]2(C)[C@@H](O)CC[C@@H]12
- TGI [1]: 29.8 µM
- TGI [2]: 29.2 µM
- TGI [3]: 5.58 µM
- TGI [4]: > 61.9 µM
- TGI [5]: > 27 µM
- TGI [6]: > 100 µM
- TGI [7]: > 100 µM
- TGI [8]: 6.15 µM
- TGI [9]: > 100 µM
- TGI [10]: > 42.9 µM
- TGI [11]: > 56.5 µM
- TGI [12]: > 100 µM
- TGI [13]: > 100 µM
- TGI [14]: > 66.8 µM
- TGI [15]: > 41.5 µM
- TGI [16]: > 86 µM
- TGI [17]: > 100 µM
- TGI [18]: > 42.9 µM
- TGI [19]: > 41.7 µM
- TGI [20]: 36.2 µM
- TGI [21]: 38 µM
- TGI [22]: 12.4 µM
- TGI [23]: > 39.5 µM
- TGI [24]: > 100 µM
- TGI [25]: 16.8 µM
- TGI [26]: 92.1 µM
- TGI [27]: > 50.9 µM
- TGI [28]: > 100 µM
- TGI [29]: 30.8 µM
- TGI [30]: > 100 µM
- TGI [31]: > 68 µM
- TGI [33]: > 44.9 µM
- TGI [34]: > 48.9 µM
- TGI [35]: > 42.4 µM
- TGI [37]: > 28.2 µM
- TGI [39]: 23 µM
- TGI [40]: 28 µM
- TGI [41]: 39.2 µM
- TGI [42]: > 33.6 µM
- TGI [43]: 17.8 µM
- TGI [44]: 4.53 µM
- TGI [45]: > 100 µM
- TGI [46]: 49.9 µM
- TGI [47]: > 100 µM
- TGI [48]: 4.95 µM
- TGI [49]: > 80.1 µM
- TGI [51]: > 100 µM
- TGI [53]: 40.6 µM
- TGI [54]: 34.2 µM
- TGI [55]: > 100 µM
- TGI [56]: 20.8 µM
- TGI [57]: > 100 µM
- TGI [59]: > 100 µM
- TGI [60]: > 25.8 µM
- TGI [61]: > 37.8 µM
- TGI [62]: > 38.5 µM
- TGI [64]: 12.8 µM
- TGI [66]: 99.5 µM
- TGI [67]: 41.9 µM
